From patent publication US12459967B2, “Modulators of 5′-nucleotidase, ecto and the use thereof” (Arcus Biosciences, Inc., priority 2016, dated 2025)

Target: T1, human CD73 (Homo sapiens, UniProt P21589)
T1 construct: host or cells: CHO-K1 (suspension pool CHO-CD73)
T1 sequence (P21589 27-549): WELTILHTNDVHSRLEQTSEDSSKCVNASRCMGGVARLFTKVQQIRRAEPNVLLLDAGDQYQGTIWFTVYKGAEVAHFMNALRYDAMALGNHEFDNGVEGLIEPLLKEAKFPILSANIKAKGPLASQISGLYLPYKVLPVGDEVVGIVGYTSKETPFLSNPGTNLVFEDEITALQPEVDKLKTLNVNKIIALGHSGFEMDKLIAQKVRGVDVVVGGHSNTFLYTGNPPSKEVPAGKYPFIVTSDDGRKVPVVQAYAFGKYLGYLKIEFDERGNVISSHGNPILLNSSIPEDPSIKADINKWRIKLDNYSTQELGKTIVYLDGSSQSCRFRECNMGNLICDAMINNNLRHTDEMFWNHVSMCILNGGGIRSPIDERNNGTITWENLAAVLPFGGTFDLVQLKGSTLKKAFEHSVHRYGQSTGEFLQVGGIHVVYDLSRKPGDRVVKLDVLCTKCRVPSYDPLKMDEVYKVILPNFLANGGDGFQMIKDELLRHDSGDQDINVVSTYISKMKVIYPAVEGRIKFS
Experiment: Inhibition of ecto-5′-nucleotidase (CD73) activity in CHO-CD73 cells, phosphate colorimetric readout
Format: cell-based
Conditions: CHO-K1 cells stably transfected with human CD73, 2500 cells per well, 25 μM AMP substrate, 50 minutes incubation at 37° C.; read-out: Potency: CD73 IC50
Procedure: Inhibition of Ecto-5′-nucleotidase Activity. Compounds were evaluated to determine their ecto-5′-nucleotidase (CD73) inhibitory activity. Briefly, CHO-K1 cells stably transfected with human CD73 were generated by LakePharma (Belmont, CA) using molecular cloning of human CD73 (http://www.uniprot.org/uniprot/P21589) and mammalian transient expression vector (P21589.1). After antibiotic selection in CD OptiCHO cell media (Invitrogen, Catalog #12681-011) containing 5 μg/mL Puromycin and 200 μg/mL Hygromycin B, a suspension pool of CHO-CD73 cells was collected and frozen in 7.5% DMSO in cell media without antibiotics.
On the day of the experiment, one vial of CHO-CD73 cells was thawed and suspended in assay media which consisted of 20 mM HEPES, pH 7.4, 137 mM NaCl, 5.4 mM KCl, 1.3 mM CaCl2), 4.2 mM NaHCO3 and 0.1% glucose. To test the ability of compounds to inhibit CD73 enzymatic activity, 2 μL of 500 μM of compounds dissolved in DMSO (50×) were added to a 96-well polystyrene plate containing 58 μL of assay buffer. Next, 20 μL of CHO-CD73 cells in assay buffer were added to assay plate followed by 20 μL of 125 μM AMP (Adenosine 5′-monophosphate monohydrate) in assay buffer. Final assay conditions consisted of 2500 cells per well in 2% DMSO and 25 μM of AMP substrate. After 50 minutes of incubation (37° C. and 5% CO2) and centrifugation at 225×g for 5 mins, 80 μL of supernatant were transferred to a 96-well Spectra Plate (PerkinElmer, cat #6005640) which was pre-dispensed with 20 μL of PiColorLock Gold colorimetric assay reagents (Thermo, cat #30 300 30). The amount of inorganic phosphate was determined by reading the absorbance at 620 nm on an EnVision Multilabel Plate Reader (PerkinElmer). Enzymatic activity of CD73 was based on the amount of phosphate generated. Percentage of activity was calculated based on DMSO and no cells control wells. IC50 values of compounds were determined by four parameter non-linear regression fitting of percentage of activity in GraphPad Prism software.

Compound	IC50
CC(C)Nc1nc(Cl)nc2c1ncn2[C@@H]1O[C@H](COP(=O)(O)CP(=O)(O)O)[C@@H](O)[C@H]1O	< 100 nM
O=P(O)(O)CP(=O)(O)OC[C@H]1O[C@@H](n2cnc3c(NC4CC4)nc(Cl)nc32)[C@@H](F)[C@@H]1O	< 100 nM
CC(C)(C)CNc1nc(Cl)nc2c1ncn2[C@@H]1O[C@H](COP(=O)(O)CP(=O)(O)O)[C@@H](O)[C@H]1O	< 100 nM
CC(C)N(C)c1nc(Cl)nc2c1ncn2[C@@H]1O[C@H](COP(=O)(O)CP(=O)(O)O)[C@@H](O)[C@H]1O	< 100 nM
O=P(O)(O)CP(=O)(O)OC[C@H]1O[C@@H](n2cnc3c(NCc4cc(C(F)(F)F)cc(C(F)(F)F)c4)ncnc32)[C@H](O)[C@@H]1O	< 100 nM
O=P(O)(O)CP(=O)(O)OC[C@H]1O[C@@H](n2cnc3c(NCc4cccc(F)c4)nc(Cl)nc32)[C@@H](F)[C@@H]1O	< 100 nM
O=P(O)(O)CP(=O)(O)OC[C@H]1O[C@@H](n2cnc3c(NCc4cccc(Cl)c4)nc(Cl)nc32)[C@@H](F)[C@@H]1O	< 100 nM
O=P(O)(O)CP(=O)(O)OC[C@H]1O[C@@H](n2cnc3c(NCc4ccccc4Cl)nc(Cl)nc32)[C@@H](F)[C@@H]1O	< 100 nM
CN(Cc1ccccc1Cl)c1nc(Cl)nc2c1ncn2[C@@H]1O[C@H](COP(=O)(O)CP(=O)(O)O)[C@@H](O)[C@@H]1F	< 100 nM
O=P(O)(O)CP(=O)(O)OC[C@H]1O[C@@H](n2cnc3c(NCc4ccncc4)nc(Cl)nc32)[C@@H](F)[C@@H]1O	< 100 nM
Cc1nc(NC2CCCC2)c2ncn([C@@H]3O[C@H](COP(=O)(O)CP(=O)(O)O)[C@@H](O)[C@@H]3F)c2n1	< 100 nM
O=P(O)(O)CP(=O)(O)OC[C@H]1O[C@@H](n2cnc3c(NC4CCCC4)nc(C(F)(F)F)nc32)[C@@H](F)[C@@H]1O	< 100 nM
O=P(O)(O)CP(=O)(O)OC[C@H]1O[C@@H](n2cnc3c(NC4CCCC4)nc(CN4CCCCC4)nc32)[C@@H](F)[C@@H]1O	100 to 1000 nM
COCc1nc(NC2CCCC2)c2ncn([C@@H]3O[C@H](COP(=O)(O)CP(=O)(O)O)[C@@H](O)[C@@H]3F)c2n1	< 100 nM
O=P(O)(O)CP(=O)(O)OC[C@H]1O[C@@H](n2ccc3c(NC4CCCC4)nc(Cl)nc32)[C@@H](F)[C@@H]1O	< 100 nM
Nc1nc(F)nc2c1ncn2[C@@H]1O[C@H](COP(=O)(O)CP(=O)(O)O)[C@@H](O)[C@H]1O	< 100 nM
Nc1nc(C(O)C2CC2)nc2c1ncn2[C@@H]1O[C@H](COP(=O)(O)CP(=O)(O)O)[C@@H](O)[C@@H]1F (stereo partly shown)	< 100 nM

Compound	IC50
CN(c1nc(Cl)nc2c1ncn2[C@@H]1O[C@H](COP(=O)(O)CP(=O)(O)O)[C@@H](O)[C@H]1O)C1CCCC1	< 100 nM
C[C@@]1(O)[C@H](O)[C@@H](COP(=O)(O)CP(=O)(O)O)O[C@H]1n1cnc2c(NC3CCCC3)nc(Cl)nc21	< 100 nM
CN(c1nc(Cl)nc2c1ncn2[C@@H]1O[C@H](COP(=O)(O)CP(=O)(O)O)[C@@H](O)[C@@]1(C)O)C1CCCC1	< 100 nM
COP(=O)(O)CP(=O)(O)OC[C@H]1O[C@@H](n2cnc3c(NC4CCCC4)nc(Cl)nc32)[C@H](O)[C@@H]1O	100 to 1000 nM
CN(c1nc(Cl)nc2c1ncn2[C@@H]1O[C@H](COP(=O)(CP(=O)(Oc2ccccc2)Oc2ccccc2)Oc2ccccc2)[C@@H](O)[C@H]1O)C1CCCC1 (stereo partly shown)	> 1000 nM
CN(c1nc(Cl)nc2c1ncn2[C@@H]1O[C@H](COP(=O)(CP(=O)(Oc2cccc(Cl)c2)Oc2cccc(Cl)c2)Oc2cccc(Cl)c2)[C@@H](O)[C@H]1O)C1CCCC1 (stereo partly shown)	> 1000 nM
CN(c1nc(Cl)nc2c1ncn2[C@@H]1O[C@H](COP(=O)(CP(=O)(Oc2ccc(Cl)c(Cl)c2)Oc2ccc(Cl)c(Cl)c2)Oc2ccc(Cl)c(Cl)c2)[C@@H](O)[C@H]1O)C1CCCC1 (stereo partly shown)	> 1000 nM
COC(=O)c1ccccc1OP(=O)(CP(=O)(Oc1ccccc1C(=O)OC)Oc1ccccc1C(=O)OC)OC[C@H]1O[C@@H](n2cnc3c(N(C)C4CCCC4)nc(Cl)nc32)[C@H](O)[C@@H]1O (stereo partly shown)	> 1000 nM
C[C@H](Nc1nc(Cl)nc2c1ncn2[C@@H]1O[C@H](COP(=O)(O)CP(=O)(O)O)[C@@H](O)[C@@H]1F)c1ccc(F)cc1	< 100 nM
O=P(O)(O)CP(=O)(O)OC[C@H]1O[C@@H](n2cnc3c(NC4CCCC4)nc(C(O)C4CCOCC4)nc32)[C@@H](F)[C@@H]1O (stereo partly shown)	100 to 1000 nM
CN(c1nc(Cl)nc2c1ncn2[C@@H]1O[C@H](COP(=O)(O)CP(=O)(O)O)[C@@H](O)[C@@H]1F)C1CCCC1	< 100 nM
COP(=O)(O)CP(=O)(O)OC[C@H]1O[C@@H](n2cnc3c(N(C)C4CCCC4)nc(Cl)nc32)[C@@H](F)[C@@H]1O	100 to 1000 nM
COP(=O)(O)CP(=O)(OC)OC[C@H]1O[C@@H](n2cnc3c(N(C)C4CCCC4)nc(Cl)nc32)[C@@H](F)[C@@H]1O (stereo partly shown)	> 1000 nM
COP(=O)(CP(=O)(O)OC[C@H]1O[C@@H](n2cnc3c(N(C)C4CCCC4)nc(Cl)nc32)[C@@H](F)[C@@H]1O)OC	> 1000 nM
COP(=O)(CP(=O)(O)O)OC[C@H]1O[C@@H](n2cnc3c(N(C)C4CCCC4)nc(Cl)nc32)[C@@H](F)[C@@H]1O (stereo partly shown)	< 100 nM
O=P(O)(O)CP(=O)(O)OC[C@H]1O[C@@H](n2ncc3c(NC4CCCC4)nc(Cl)nc32)[C@H](O)[C@@H]1O	< 100 nM
C[C@H](Nc1nc(Cl)nc2c1cnn2[C@@H]1O[C@H](COP(=O)(O)CP(=O)(O)O)[C@@H](O)[C@H]1O)c1ccccc1	< 100 nM

Other lines, results leading:

IC50	Compound
< 100 nM	O=P(O)(O)CP(=O)(O)OC[C@H]1O[C@@H](n2cnc3c(NCCc4ccccc4)nc(Cl)nc32)[C@@H](F)[C@@H]1O
< 100 nM	Cc1nc(NCc2ccccc2)c2ncn([C@@H]3O[C@H](COP(=O)(O)CP(=O)(O)O)[C@@H](O)[C@@H]3F)c2n1
< 100 nM	O=P(O)(O)CP(=O)(O)OC[C@H]1O[C@@H](n2cnc3c(NCc4ccccc4)nc(C(F)(F)F)nc32)[C@@H](F)[C@@H]1O
< 100 nM	O=P(O)(O)CP(=O)(O)OC[C@H]1O[C@@H](n2cnc3c(NCc4ccccc4)nc(-c4ccccc4)nc32)[C@@H](F)[C@@H]1O
< 100 nM	O=P(O)(O)CP(=O)(O)OC[C@H]1O[C@@H](n2cnc3c(NCc4ccccc4)nc(Cc4ccccc4)nc32)[C@@H](F)[C@@H]1O
< 100 nM	O=P(O)(O)CP(=O)(O)OC[C@H]1O[C@@H](n2cnc3c(NCc4ccccc4)nc(C(O)c4ccccc4)nc32)[C@@H](F)[C@@H]1O (stereo partly shown)
< 100 nM	O=P(O)(O)CP(=O)(O)OC[C@H]1O[C@@H](n2cnc3c(NCc4ccccc4)nc(C#Cc4ccccc4)nc32)[C@@H](F)[C@@H]1O
< 100 nM	O=P(O)(O)CP(=O)(O)OC[C@H]1O[C@@H](n2cnc3c(NCc4ccccc4)nc(CCc4ccccc4)nc32)[C@@H](F)[C@@H]1O
< 100 nM	C#Cc1nc(NCc2ccccc2)c2ncn([C@@H]3O[C@H](COP(=O)(O)CP(=O)(O)O)[C@@H](O)[C@@H]3F)c2n1
< 100 nM	O=P(O)(O)CP(=O)(O)OC[C@H]1O[C@@H](n2cnc3c(OCc4ccccc4)nc(Cl)nc32)[C@@H](F)[C@@H]1O
< 100 nM	O=P(O)(O)CP(=O)(O)OC[C@H]1O[C@@H](n2ccc3c(NCc4ccccc4)nc(Cl)nc32)[C@@H](F)[C@@H]1O
> 1000 nM	CC(Cn1cnc2c(NCc3ccccc3)ncnc21)OP(=O)(O)CP(=O)(O)O (stereo not shown)
> 1000 nM	CC(COP(=O)(O)CP(=O)(O)O)n1cnc2c(NCc3ccccc3)ncnc21 (stereo not shown)
< 100 nM	CC(OP(=O)(O)CP(=O)(O)O)[C@H]1O[C@@H](n2cnc3c(NCc4ccccc4)nc(Cl)nc32)[C@H](O)[C@@H]1O (stereo partly shown)
< 100 nM	CCC(OP(=O)(O)CP(=O)(O)O)[C@H]1O[C@@H](n2cnc3c(NCc4ccccc4)nc(Cl)nc32)[C@H](O)[C@@H]1O (stereo partly shown)
< 100 nM	C[C@@H](Nc1nc(Cl)nc2c1ncn2[C@@H]1O[C@H](COP(=O)(O)CP(=O)(O)O)[C@@H](O)[C@@H]1F)c1ccccc1
< 100 nM	C[C@H](Nc1nc(Cl)nc2c1ncn2[C@@H]1O[C@H](COP(=O)(O)CP(=O)(O)O)[C@@H](O)[C@@H]1F)c1ccccc1
< 100 nM	O=P(O)(O)CP(=O)(O)OC[C@H]1O[C@@H](n2ncc3c(NCc4ccccc4)nc(Cl)nc32)[C@H](O)[C@@H]1O
